Results reported in ChEMBL document CHEMBL5154738, “Design, synthesis and structural-activity relationship studies of phanginin A derivatives for regulating SIK1-cAMP/CREB signaling to suppress hepatic gluconeogenesis” (Eur J Med Chem, 2022).
Calls of active or inactive are those of the source. The rule behind the calls is not given here.

Tests used:
[1] = Inhibition of gluconeogenesis in C57BL/6J mouse primary hepatocytes assessed as inhibition of glucagon-stimulated glucose production at 5 uM preincubated for 1.5 hrs followed by lactate and pyruvate addition and later stimulated with glucagon for 4 hrs; format: functional; conditions: Hepatocyte, time 5.5 hrs
[2] = Inhibition of gluconeogenesis in C57BL/6J mouse primary hepatocytes assessed as inhibition of glucagon-stimulated glucose production at 2.5 uM preincubated for 1.5 hrs followed by lactate and pyruvate addition and later stimulated with glucagon for 4 hrs; format: functional; conditions: Hepatocyte, time 5.5 hrs
[3] = Cytotoxicity against C57BL/6J mouse primary hepatocytes assessed as cell viability at 20 uM incubated for 24 hrs by MTT assay relative to control; format: toxicity, cell-based, Hepatocyte; conditions: read-out: Activity
[4] = Inhibition of gluconeogenesis in C57BL/6J mouse primary hepatocytes assessed as inhibition of glucagon-stimulated glucose production at 10 uM preincubated for 1.5 hrs followed by lactate and pyruvate addition and later stimulated with glucagon for 4 hrs; format: functional; conditions: Hepatocyte, time 5.5 hrs
[5] = Cytotoxicity against C57BL/6J mouse primary hepatocytes assessed as cell viability at 10 uM incubated for 24 hrs by MTT assay relative to control; format: toxicity, cell-based, Hepatocyte; conditions: read-out: Activity
[6] = Cytotoxicity against C57BL/6J mouse primary hepatocytes assessed as cell viability at 50 uM incubated for 24 hrs by MTT assay relative to control; format: toxicity, cell-based, Hepatocyte; conditions: read-out: Activity
[7] = Cytotoxicity against C57BL/6J mouse primary hepatocytes assessed as cell viability at 100 uM incubated for 24 hrs by MTT assay relative to control; format: toxicity, cell-based, Hepatocyte; conditions: read-out: Activity
[8] = Cytotoxicity against C57BL/6J mouse primary hepatocytes assessed as cell viability at 200 uM incubated for 24 hrs by MTT assay relative to control; format: toxicity, cell-based, Hepatocyte; conditions: read-out: Activity
Mus musculus [9] = test: Anti-hyperglycemic activity in ob/ob mouse assessed as reduction in fasting blood glucose level at 100 mg/kg, po administered once daily and measured after 21 days relative to control; format: functional; conditions: 504 h, time 21 day
Mus musculus [10] = test: Acute hypoglycemic activity in type 2 diabetic ob/ob mouse assessed as reduction in fasting blood glucose level at 100 mg/kg, po administered as single dose and measured for 10 hrs; format: functional, organism-based
Mus musculus [11] = test: Anti-hyperglycemic activity in ob/ob mouse assessed as reduction in non-fasting blood glucose level at 100 mg/kg, po administered once daily and measured after 8 days relative to control; format: functional; conditions: 192 h, time 8 day
Mus musculus [12] = test: Anti-hyperglycemic activity in ob/ob mouse assessed as reduction in fasting blood glucose level at 100 mg/kg, po administered once daily and measured after 4 days relative to control; format: functional; conditions: 96 h, time 4 day
Mus musculus [13] = test: Anti-hyperglycemic activity in ob/ob mouse assessed as reduction in non-fasting blood glucose level at 100 mg/kg, po administered once daily and measured after 21 days relative to control; format: functional; conditions: 504 h, time 21 day
Mus musculus [14] = test: In vivo activation of SIK1 in ob/ob mouse assessed as increase in SIK1 phosphorylation at Thr182 residue in liver at 100 mg/kg, po administered once daily for 21 days by western blot analysis; format: functional, organism-based; conditions: time 21.0 day
Mus musculus [15] = test: In vivo activation of SIK1 in ob/ob mouse assessed as decrease in CREB phosphorylation in liver at 100 mg/kg, po administered once daily for 21 days by western blot analysis; format: functional, organism-based; conditions: time 21.0 day
[16] = target: Serine/threonine-protein kinase SIK1 (Mus musculus) (UniProt Q60670); test: Activation of SIK1 in C57BL/6J mouse primary hepatocytes assessed as increase in SIK1 phosphorylation at Thr182 residue measured after 2 hrs by western blot analysis; format: cell-based; conditions: Primary hepatocyte, filed as activator, dose 2.5-10 µM, DDE = dose-dependent effect
Sequence of Serine/threonine-protein kinase SIK1 (Mus musculus) (Q60670 whole entry): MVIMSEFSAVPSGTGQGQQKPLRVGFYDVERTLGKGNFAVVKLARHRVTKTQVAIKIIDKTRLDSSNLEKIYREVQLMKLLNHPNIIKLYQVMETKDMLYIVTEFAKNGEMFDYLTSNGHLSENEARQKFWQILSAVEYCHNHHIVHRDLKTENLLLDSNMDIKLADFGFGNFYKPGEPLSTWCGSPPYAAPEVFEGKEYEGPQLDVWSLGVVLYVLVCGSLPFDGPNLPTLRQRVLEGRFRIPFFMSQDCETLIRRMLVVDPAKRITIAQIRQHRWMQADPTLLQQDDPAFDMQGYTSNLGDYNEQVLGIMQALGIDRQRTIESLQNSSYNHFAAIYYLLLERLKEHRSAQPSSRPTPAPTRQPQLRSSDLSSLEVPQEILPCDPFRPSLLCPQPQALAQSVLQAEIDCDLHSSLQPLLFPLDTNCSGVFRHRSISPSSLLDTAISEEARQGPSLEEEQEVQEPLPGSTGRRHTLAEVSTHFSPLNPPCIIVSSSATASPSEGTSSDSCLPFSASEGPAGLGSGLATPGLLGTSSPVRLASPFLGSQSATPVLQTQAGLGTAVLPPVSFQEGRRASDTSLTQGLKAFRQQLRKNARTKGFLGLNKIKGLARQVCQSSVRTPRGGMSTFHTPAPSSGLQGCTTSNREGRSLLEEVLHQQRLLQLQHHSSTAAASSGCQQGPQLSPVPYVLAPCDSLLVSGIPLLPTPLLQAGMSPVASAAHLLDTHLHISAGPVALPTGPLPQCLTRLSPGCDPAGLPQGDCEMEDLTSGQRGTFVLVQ

SMILES	inhibition at 5 µM [1]	inhibition at 2.5 µM [2]	viability at 24 h, 20 µM [3]	inhibition at 10 µM [4]	viability at 24 h, 10 µM [5]	viability at 24 h, 50 µM [6]	viability at 24 h, 100 µM [7]	viability at 24 h, 200 µM [8]	also measured
COC(=O)[C@@]12CCCC3([C@H](OCCCO)OC1)[C@H]2CC[C@H]1[C@@H](C)c2ccoc2C[C@@H]13	81.8%	32.7%	20.6%	97.5%	49.7%	14.1%	12%	9.9%	–
CCNC(=O)[C@@]12CCCC3([C@H](OCCO)OC1)[C@H]2CC[C@H]1[C@@H](C)c2ccoc2C[C@@H]13	52.8%	21.8%	84.1%	66.1%	84.2%	90%	73.4%	47.5%	–
CC(=O)OCCO[C@@H]1OC[C@@]2(CO)CCCC13[C@H]2CC[C@H]1[C@@H](C)c2ccoc2C[C@@H]13	54.4%	25.1%	84.1%	77.3%	81.7%	77.7%	79.9%	14.1%	–
COC(=O)[C@@]12CCCC3([C@H](OCCO)OC1)[C@H]2CC[C@H]1[C@@H](C)[C@@H]2CCO[C@@H]2C[C@@H]13	–	–	–	15.9%	–	–	–	–	–
COC(=O)[C@@]12CCCC3([C@H](O)OC1)[C@H]2CC[C@H]1[C@@H](C)c2ccoc2C[C@@H]13	49.7%	24.9%	84.6%	70.5%	99%	29.4%	7.5%	7.2%	inhibition in vivo at 100 mg/kg (Mus musculus [9]): 33.3%; Activity (Mus musculus [10]): Active; inhibition in vivo at 100 mg/kg (Mus musculus [11]): 28.2%; inhibition in vivo at 100 mg/kg (Mus musculus [12]): 24%; inhibition in vivo at 100 mg/kg (Mus musculus [13]): 23.8%; Activity (Mus musculus [14]): Active; Activity (Mus musculus [15]): Active
CC(=O)OC[C@@]12CCCC3([C@H](OCCO)OC1)[C@H]2CC[C@H]1[C@@H](C)c2ccoc2C[C@@H]13	32.1%	-2.1%	78.1%	82.7%	83.2%	85%	92.4%	14.2%	–
C[C@H]1c2ccoc2C[C@H]2[C@H]1CC[C@@H]1C23CCC[C@]1(CO)CO[C@H]3OCCO	69.4%	41.4%	69.6%	71.1%	74.8%	63.9%	42.2%	13.2%	–
COC(=O)[C@@]12CCCC3([C@H](O)OC1)[C@H]2CC[C@H]1[C@@H](C)[C@@H]2CCO[C@@H]2C[C@@H]13	–	–	–	41.1%	–	–	–	–	–
CCCNC(=O)[C@@]12CCCC3([C@H](OCCO)OC1)[C@H]2CC[C@H]1[C@@H](C)c2ccoc2C[C@@H]13	45%	21.2%	77.5%	62.1%	84.3%	70.5%	57.4%	27.5%	–
COC(=O)[C@@]12CCC[C@]3(COC1)[C@H]1Cc4occc4[C@H](C)[C@@H]1CC[C@@H]23	–	–	–	52%	–	–	–	–	–
COC(=O)[C@@]12CCCC3([C@H](OCCO)OC1)[C@H]2CC[C@H]1[C@@H](C)C2=CC(=O)O[C@]2(O)C[C@@H]13	–	–	–	-12.3%	–	–	–	–	–
COC(=O)[C@@]12CCCC3([C@H](OCCOCCOCCO)OC1)[C@H]2CC[C@H]1[C@@H](C)c2ccoc2C[C@@H]13	97.4%	47.2%	23.4%	97.1%	40.5%	12.1%	10.3%	8.1%	–
COC(=O)[C@]12CCCC3([C@H]1CC[C@H]1[C@@H](C)c4ccoc4C[C@@H]13)[C@H](SCCO)OC2	44.4%	13.1%	97.9%	67.3%	105%	74.1%	10.2%	9.2%	–
COC(=O)[C@@]12CCCC3([C@H](OCCCCCCO)OC1)[C@H]2CC[C@H]1[C@@H](C)c2ccoc2C[C@@H]13	67.2%	33.5%	81.5%	81.8%	89.3%	28.6%	11.3%	11.4%	–
COC(=O)[C@@]12CCC[C@]3(C(=O)OC1)[C@H]1Cc4occc4[C@H](C)[C@@H]1CC[C@@H]23	–	–	–	41.2%	–	–	–	–	–
COC(=O)[C@@]12CCCC3([C@H](OCCOCCOCCOCCO)OC1)[C@H]2CC[C@H]1[C@@H](C)c2ccoc2C[C@@H]13	87.8%	63.1%	25.4%	111%	48.9%	12.9%	11%	7.9%	Activity [16]: Dde
CCCCO[C@@H]1OC[C@@]2(C(=O)OC)CCCC13[C@H]2CC[C@H]1[C@@H](C)c2ccoc2C[C@@H]13	–	–	–	36.2%	–	–	–	–	–
COC(=O)[C@@]12CCCC3([C@H](OCCOCCO)OC1)[C@H]2CC[C@H]1[C@@H](C)c2ccoc2C[C@@H]13	93.3%	67.3%	17.4%	95.6%	28.3%	12%	10.6%	7.9%	Activity [16]: Dde
CCO[C@@H]1OC[C@@]2(C(=O)OC)CCCC13[C@H]2CC[C@H]1[C@@H](C)c2ccoc2C[C@@H]13	–	–	–	24.9%	–	–	–	–	–
CNC(=O)[C@@]12CCCC3([C@H](OCCO)OC1)[C@H]2CC[C@H]1[C@@H](C)c2ccoc2C[C@@H]13	34.2%	9.6%	84.7%	56.6%	82.9%	85.8%	82.6%	76.3%	–
COC(=O)[C@@]12CCCC3([C@H](OCCCCO)OC1)[C@H]2CC[C@H]1[C@@H](C)c2ccoc2C[C@@H]13	95.8%	47%	27.5%	92.7%	54%	19.8%	18.7%	17.6%	–
COC(=O)[C@]12CCC[C@]3(COC1)[C@H]1C[C@H]4OCC[C@H]4[C@H](C)[C@@H]1CC[C@@H]23	–	–	–	36.3%	–	–	–	–	–
C[C@H]1c2ccoc2C[C@H]2[C@H]1CC[C@@H]1C23CCC[C@]1(C(=O)O)CO[C@H]3OCCO	–	–	–	24.3%	–	–	–	–	–
COC(=O)[C@@]12CCCC3([C@H](OC)OC1)[C@H]2CC[C@H]1[C@@H](C)c2ccoc2C[C@@H]13	–	–	–	18.8%	–	–	–	–	–
COC(=O)[C@@]12CCCC3([C@H](OCCCCCO)OC1)[C@H]2CC[C@H]1[C@@H](C)c2ccoc2C[C@@H]13	82.7%	32.2%	33.3%	89.2%	70.1%	17.2%	19.3%	18.7%	–
